Test results reported in patent US20100022584A1, “Modulation of Glutamine Synthetase Activity” (priority 2006, published 2010).

Molecular target: T1, glutamine synthetase mutant S52A S53A Y397V (Escherichia coli, UniProt P0A9C5, S53A/S54A/Y398V)
T1 construct: made in house; host or cells: E. coli YMC11 (glutamine synthetase auxotroph), pBluescript II SK+
T1 sequence (P0A9C5 2-469 S53A/S54A/Y398V limits assumed): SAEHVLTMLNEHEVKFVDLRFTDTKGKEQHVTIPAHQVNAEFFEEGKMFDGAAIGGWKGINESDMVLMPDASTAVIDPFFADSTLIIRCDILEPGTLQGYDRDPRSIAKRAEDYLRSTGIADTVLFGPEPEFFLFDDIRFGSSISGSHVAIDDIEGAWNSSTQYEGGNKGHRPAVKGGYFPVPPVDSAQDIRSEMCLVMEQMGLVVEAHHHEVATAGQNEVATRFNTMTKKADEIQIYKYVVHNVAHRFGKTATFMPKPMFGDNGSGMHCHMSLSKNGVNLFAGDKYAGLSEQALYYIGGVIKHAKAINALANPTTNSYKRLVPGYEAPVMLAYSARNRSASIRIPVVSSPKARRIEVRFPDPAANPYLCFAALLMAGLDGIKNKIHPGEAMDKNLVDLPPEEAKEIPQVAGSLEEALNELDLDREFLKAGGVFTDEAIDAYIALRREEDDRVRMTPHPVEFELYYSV
Experiment: HPLC forward-reaction glutamine synthetase assay with serine protease inhibitors
Assay type: biochemical, E. coli
Settings: 1 mM inhibitor; for inhibition of the enzyme (in words): HPLC assays; for % Reduction in ADP-based Specific Activity / % Reduction in Glutamine-based Specific Activity / % Conversion: Mn assay; for % Reduction in ADP-based Specific Activity / % Reduction in Glutamine-based Specific Activity: 60 min pre-incubation, vs no-inhibitor control; for % Reduction in Glutamine-based Specific Activity: positive = activity increased; for % Conversion: glutamine-based divided by ADP-based specific activity

SMILES	inhibition of the enzyme (in words)	% Reduction in ADP-based Specific Activity [%]	% Reduction in Glutamine-based Specific Activity [%]	% Conversion [%]
NCCc1ccc(S(=O)(=O)F)cc1 [AEBSF]	appeared to cause inhibition	−5.20	−1.65	75
O=S(=O)(F)Cc1ccccc1 [PMSF]	did not significantly inhibit	−4.83	−18.20	62
